Source: patent US20170249408A1, “Antiperspirant and Deodorant Compositions Comprising Malodor Reduction Compositions” (The Procter & Gamble Company, priority 2015, published 2017)

Test: Blocker Index (BI), expert graders, isovaleric acid malodorous swatch
Design: key: Blocker Index, expert-graded scale 0 to 3 (0 = clean swatch anchor)
Description: Blocker materials suitable for use in consumer products of the present invention are chosen for their ability to decrease malodor, while not interfering with perception of a fragrance. Material selection is done by assigning two indices to a test sample material from two reference scales in order to rank odor strengths. The two reference scales are the Fragrance Fidelity Index (FFI) scale and the Blocker Index (BI) scale. The FFI ranks the ability of the test sample material to impart a perceivable odor which could cause interference when combined with another fragrance and the BI ranks the ability of the test sample material to reduce malodor perception. The two methods for assigning the indices to a test sample on the FFI and the BI reference scales are given below.
The first step in the method for assigning a BI to a test sample material on the BI reference scale is to create the BI reference swatches. […] Fabric swatches for this test are white knit polycotton (4 inch×4 inch) swatches from EMC ordered as PC 50/50. The supplier is instructed to strip the swatches first, stripping involves washing twice with a fragrance-free detergent and rinsing three times.
The BI scale contains one clean swatch with no malodor applied. […] These solutions are pipetted to the middle of the swatches. […] After drying for 30 minutes in a vented hood, the swatches are wrapped in aluminum foil to prevent odor contamination to the treated swatch. A clean untreated swatch is also included as the lowest anchor point of reference for malodor strength on the BI scale. The BI reference scale swatches should be used within 0.5 to 12 hours and discarded after 12 hours. The swatches are used as scale anchor points when graders evaluate a test sample(s) and are assigned a Blocker Index (BI) as show in Table 12.
The perfumer/expert grader is asked to rank order swatches according to a scale between 0 and 3.
To evaluate the BI, the test material is applied to a malodorous swatch to determine how well the test material blocks the malodor. […] After drying the malodorous swatch a known concentration of test material solution, between 1 ppm and 100 ppm is pipetted onto the malodorous swatch. […] It is sometimes necessary to evaluate several levels of the test material between about 1 and about 100 ppm to determine the BI.
At least two perfumers/expert graders are used to assign the BI to the test sample. […] The test sample swatch is assigned a BI at or between numbers on the BI in table.

[1] = Conc 10 ppm of test material on isovaleric acid malodorous swatch
[2] = Conc 50 ppm of test material on isovaleric acid malodorous swatch
[3] = test material Conc 10 ppm on isovaleric acid swatch
[4] = test material Conc 50 ppm on isovaleric acid swatch

Compound `O=C1CCC2CCCCC2O1` (stereo not shown) [3,4,4a,5,6,7,8,8a-octahydrochromen-2-one] has a BI [1] of 2.0 and a BI [2] of 2.0.

`CC1CCC2(C(C)C)CC(C)OC2C1` (stereo not shown) [4,8-dimethyl-1-(methylethyl)-7-oxybiciclo[4.3.0]nonane] gave a BI [3] of 2.0 and a BI [4] of 2.2.

`CC(C)(C)C1CCCCC1` [4-tert-butyl cyclohexane] gave a BI [1] of 2.0 and a BI [2] of 2.0.

In the case of `CCC(=O)OC1CC2C3C=CCC3C1C2(C)C` (stereo not shown) [8,8-dimethyl-3a,4,5,6,7,7a-hexahydro-1H-4,7-methanoinden-6-yl propionate], the BI [3] is reported as 1.5 and the BI [4] is reported as 2.2.

Compound `CCCCCCCCCCCCCCCC(=O)OC` [Material 109] has a BI [1] of 2.0.

In the case of `CCCCCCCCCCCCO` [Material 174], the BI [2] is reported as 2.3.

With `CC(=O)OCCCCCCC(C)C` [Material 204] the BI [1] was 2.0 and the BI [2] was 2.7.

`CC1(C)CCc2ccc(CCC=O)cc21` [Material 261, 3-(3,3-dimethyl-2,3-dihydro-1H-inden-5-yl)propanal] showed a BI [3] of 1.5 and a BI [4] of 2.7.

Work on `CC1(C)CCc2ccc(CCC=O)cc21` [Material 261] yielded a BI [1] of 1.8 and a BI [2] of 1.3.

For `CC(=O)OC1CC2CC1C1CC=CC21` (stereo not shown) [Material 281], the BI [1] was 2.0 and the BI [2] was 2.0.

Compound `CCCCCCCCCCCC(=O)OCC` [Material 391] has a BI [2] of 2.2.

Work on `C=CC(C)=CCC=C(C)C` [Material 524] yielded a BI [2] of 2.8.

`CCC(O)COC1CCCCC1C(C)(C)C` (stereo not shown) [Material 677] showed a BI [1] of 2.3 and a BI [2] of 2.0.

`CC(CCO)CCc1ccccc1` (stereo not shown) [Material 962] showed a BI [1] of 2.3 and a BI [2] of 1.7.

Compound `CCOC(=O)OC1C(C)CCC(C)C1C` (stereo not shown) [Material 1005] has a BI [2] of 2.6.

`COC(=O)OC1CC/C=C\CCC1` (stereo not shown) [Material 1139] gave a BI [1] of 2.0 and a BI [2] of 2.7.

Compound `C=C1CCC2OC2(C)CCC2C1CC2(C)C` (stereo not shown) [Material 1148] has a BI [2] of 2.3.

Compound `CC1(C)C2CCC3(C2)C1C(=O)CCC3(C)C` (stereo not shown) [Material 1149] has a BI [1] of 1.5 and a BI [2] of 2.3.

In the case of `CCCCCCCCCCCO` [Undecanol], the BI [2] is reported as 2.3.
